Patent US6706740B2, “Fungicidal heterocyclic aromatic amides and their compositions, methods of use and preparation” (Dow AgroSciences LLC, priority 1999, dated 2004)

Columns and labels:
[1] = system: Magnaporthe grisea (Pyricularia oryzae—PYRIOR); test: microbe, parasite or virus in culture; format: cell-based; conditions: Pyricularia oryzae, read-out: PYRIOR in vitro Growth Inhibition
[2] = system: Rhizoctonia solani (RHIZSO); test: microbe, parasite or virus in culture; format: cell-based; conditions: Rhizoctonia solani, read-out: RHIZSO in vitro Growth Inhibition
[3] = system: Mycosphaerella graminicola (Septoria tritici—SEPTTR); test: In vitro fungal growth inhibition, Mycosphaerella graminicola (SEPTTR); format: cell-based; conditions: Zymoseptoria tritici; 25 ppm in growth medium; read-out: SEPTTR in vitro Growth Inhibition
[4] = system: Stagonospora nodorum (Leptosphaeria nodorum—LEPTNO); test: In vitro fungal growth inhibition, Stagonospora nodorum (LEPTNO); format: cell-based; conditions: Leptosphaeria; 25 ppm in growth medium; read-out: LEPTNO in vitro Growth Inhibition
[5] = system: Ustilago maydis (USTIMA); test: microbe, parasite or virus in culture; format: cell-based; conditions: Mycosarcoma maydis, read-out: USTIMA in vitro Growth Inhibition
[6] = system: Phytophthora infestans (PHYTIN); test: microbe, parasite or virus in culture; format: cell-based; conditions: Phytophthora infestans, read-out: PHYTIN in vitro Growth Inhibition
[7] = system: Phytophthora infestans—PHYTIN; test: whole plant or invertebrate; format: in vivo; conditions: Phytophthora, in Solanum lycopersicum, 24 h, read-out: PHYTIN in vivo 1 Day Protectant
[8] = system: Puccinia recondita—PUCCRT; test: Brown Rust of Wheat, in vivo whole plant, 24 Hour Protectant; conditions: Puccinia; 100 ppm spray, 24 hour protectant, wheat; control of fungal infection vs untreated plants; read-out: PUCCRT in vivo 1 Day Protectant
[9] = system: Erysiphe graminis—ERYSGT; test: Powdery Mildew of Wheat, in vivo whole plant, 24 Hour Protectant; conditions: Erysiphe; 100 ppm spray, 24 hour protectant, wheat; control of fungal infection vs untreated plants; read-out: ERYSGT in vivo 1 Day Protectant
[10] = system: Septoria tritici—SEPTTR; test: Leaf Blotch of Wheat, in vivo whole plant, 24 Hour Protectant; conditions: Zymoseptoria tritici, 24 h, 100 ppm spray, 24 hour protectant, wheat; control of fungal infection vs untreated plants; read-out: SEPTTR in vivo 1 Day Protectant
[11] = system: Leptosphaeria nodorum—LEPTNO; test: Glume Blotch of Wheat, in vivo whole plant, 24 Hour Protectant; conditions: Leptosphaeria; 100 ppm spray, 24 hour protectant, wheat; control of fungal infection vs untreated plants; read-out: LEPTNO in vivo 1 Day Protectant

## O=C(OC1CCC(NC(=O)c2ncccc2O)CC1)c1ccccc1 (stereo not drawn) [Compound 211]
[1]
  inhibition at 25 ppm: < 80%
[2]
  inhibition at 25 ppm: < 80%
[3]
  inhibition at 25 ppm: < 80%
[4]
  inhibition at 25 ppm: < 80%
[5]
  inhibition at 25 ppm: < 80%
[6]
  inhibition at 25 ppm: < 80%
[7]
  pest or weed control at 100 ppm: < 25%
[8]
  pest or weed control at 100 ppm: < 25%
[9]
  pest or weed control at 100 ppm: < 25%
[10]
  pest or weed control at 100 ppm: 25 to 74%
[11]
  pest or weed control at 100 ppm: 25 to 74%
other
  melting point: 154 to 157 °C

## O=C(Nc1cccc(Cl)c1)c1ncccc1O [Compound 212]
[1]
  inhibition at 25 ppm: > 80%
[2]
  inhibition at 25 ppm: < 80%
[3]
  inhibition at 25 ppm: < 80%
[4]
  inhibition at 25 ppm: < 80%
[5]
  inhibition at 25 ppm: < 80%
[6]
  inhibition at 25 ppm: < 80%
[7]
  pest or weed control at 100 ppm: < 25%
[8]
  pest or weed control at 100 ppm: < 25%
[9]
  pest or weed control at 100 ppm: < 25%
[10]
  pest or weed control at 100 ppm: < 25%
[11]
  pest or weed control at 100 ppm: < 25%
other
  melting point: 131 to 132 °C

## COc1cc(NC(=O)c2ncccc2O)cc(OC)c1 [Compound 216]
[1]
  inhibition at 25 ppm: > 80%
[2]
  inhibition at 25 ppm: < 80%
[3]
  inhibition at 25 ppm: < 80%
[4]
  inhibition at 25 ppm: < 80%
[5]
  inhibition at 25 ppm: < 80%
[6]
  inhibition at 25 ppm: < 80%
[7]
  pest or weed control at 100 ppm: < 25%
[8]
  pest or weed control at 100 ppm: < 25%
[9]
  pest or weed control at 100 ppm: < 25%
[10]
  pest or weed control at 100 ppm: < 25%
[11]
  pest or weed control at 100 ppm: < 25%
other
  melting point: 127 to 129 °C

## O=C(Nc1ccc(Oc2ccc(C(F)(F)F)cc2)cc1)c1ncccc1O [Compound 217]
[1]
  inhibition at 25 ppm: < 80%
[2]
  inhibition at 25 ppm: < 80%
[3]
  inhibition at 25 ppm: < 80%
[4]
  inhibition at 25 ppm: < 80%
[5]
  inhibition at 25 ppm: < 80%
[6]
  inhibition at 25 ppm: < 80%
[7]
  pest or weed control at 100 ppm: < 25%
[8]
  pest or weed control at 100 ppm: < 25%
[9]
  pest or weed control at 100 ppm: 25 to 74%
[10]
  pest or weed control at 100 ppm: < 25%
[11]
  pest or weed control at 100 ppm: < 25%
other
  melting point: 131 to 133 °C

## O=C(NCc1ccccc1Cl)c1ncccc1O [Compound 218]
[1]
  inhibition at 25 ppm: > 80%
[2]
  inhibition at 25 ppm: > 80%
[3]
  inhibition at 25 ppm: < 80%
[4]
  inhibition at 25 ppm: > 80%
[5]
  inhibition at 25 ppm: > 80%
[6]
  inhibition at 25 ppm: > 80%
[7]
  pest or weed control at 100 ppm: < 25%
[8]
  pest or weed control at 100 ppm: < 25%
[9]
  pest or weed control at 100 ppm: < 25%
[10]
  pest or weed control at 100 ppm: < 25%
[11]
  pest or weed control at 100 ppm: < 25%
other
  melting point: 97 to 99 °C

## O=C(NCc1cccc(Cl)c1)c1ncccc1O [Compound 219]
[1]
  inhibition at 25 ppm: > 80%
[2]
  inhibition at 25 ppm: > 80%
[3]
  inhibition at 25 ppm: > 80%
[4]
  inhibition at 25 ppm: > 80%
[5]
  inhibition at 25 ppm: > 80%
[6]
  inhibition at 25 ppm: > 80%
[7]
  pest or weed control at 100 ppm: < 25%
[8]
  pest or weed control at 100 ppm: < 25%
[9]
  pest or weed control at 100 ppm: < 25%
[10]
  pest or weed control at 100 ppm: < 25%
[11]
  pest or weed control at 100 ppm: < 25%
other
  melting point: 65 to 67 °C

## O=C(NCc1ccc(Cl)cc1)c1ncccc1O [Compound 220]
[1]
  inhibition at 25 ppm: > 80%
[2]
  inhibition at 25 ppm: > 80%
[3]
  inhibition at 25 ppm: > 80%
[4]
  inhibition at 25 ppm: > 80%
[5]
  inhibition at 25 ppm: > 80%
[6]
  inhibition at 25 ppm: > 80%
[7]
  pest or weed control at 100 ppm: 25 to 74%
[8]
  pest or weed control at 100 ppm: < 25%
[9]
  pest or weed control at 100 ppm: < 25%
[10]
  pest or weed control at 100 ppm: < 25%
[11]
  pest or weed control at 100 ppm: < 25%
other
  melting point: 95 to 97 °C

## O=C(NCc1ccc(Cl)c(Cl)c1)c1ncccc1O [Compound 221]
[1]
  inhibition at 25 ppm: > 80%
[2]
  inhibition at 25 ppm: < 80%
[3]
  inhibition at 25 ppm: > 80%
[4]
  inhibition at 25 ppm: < 80%
[5]
  inhibition at 25 ppm: < 80%
[6]
  inhibition at 25 ppm: > 80%
[7]
  pest or weed control at 100 ppm: < 25%
[8]
  pest or weed control at 100 ppm: < 25%
[9]
  pest or weed control at 100 ppm: < 25%
[10]
  pest or weed control at 100 ppm: < 25%
[11]
  pest or weed control at 100 ppm: < 25%
other
  melting point: 100 to 101 °C

## Cc1ccc(CNC(=O)c2ncccc2O)cc1 [Compound 223]
[1]
  inhibition at 25 ppm: > 80%
[2]
  inhibition at 25 ppm: < 80%
[3]
  inhibition at 25 ppm: < 80%
[4]
  inhibition at 25 ppm: > 80%
[5]
  inhibition at 25 ppm: > 80%
[6]
  inhibition at 25 ppm: > 80%
[7]
  pest or weed control at 100 ppm: < 25%
[8]
  pest or weed control at 100 ppm: < 25%
[9]
  pest or weed control at 100 ppm: < 25%
[10]
  pest or weed control at 100 ppm: < 25%
[11]
  pest or weed control at 100 ppm: < 25%
other
  melting point: 83 to 84 °C

## COc1ccccc1CNC(=O)c1ncccc1O [Compound 224]
[1]
  inhibition at 25 ppm: > 80%
[2]
  inhibition at 25 ppm: < 80%
[3]
  inhibition at 25 ppm: < 80%
[4]
  inhibition at 25 ppm: < 80%
[5]
  inhibition at 25 ppm: < 80%
[6]
  inhibition at 25 ppm: < 80%
[7]
  pest or weed control at 100 ppm: < 25%
[8]
  pest or weed control at 100 ppm: < 25%
[9]
  pest or weed control at 100 ppm: < 25%
[10]
  pest or weed control at 100 ppm: < 25%
[11]
  pest or weed control at 100 ppm: < 25%
other
  melting point: 75 to 76 °C

## COc1cccc(CNC(=O)c2ncccc2O)c1 [Compound 225]
[1]
  inhibition at 25 ppm: < 80%
[2]
  inhibition at 25 ppm: < 80%
[3]
  inhibition at 25 ppm: < 80%
[4]
  inhibition at 25 ppm: < 80%
[5]
  inhibition at 25 ppm: < 80%
[6]
  inhibition at 25 ppm: > 80%
[7]
  pest or weed control at 100 ppm: < 25%
[8]
  pest or weed control at 100 ppm: < 25%
[9]
  pest or weed control at 100 ppm: < 25%
[10]
  pest or weed control at 100 ppm: < 25%
[11]
  pest or weed control at 100 ppm: < 25%
other
  melting point: 41 to 43 °C

## COc1ccc(CNC(=O)c2ncccc2O)cc1 [Compound 226]
[1]
  inhibition at 25 ppm: < 80%
[2]
  inhibition at 25 ppm: < 80%
[3]
  inhibition at 25 ppm: < 80%
[4]
  inhibition at 25 ppm: < 80%
[5]
  inhibition at 25 ppm: < 80%
[6]
  inhibition at 25 ppm: > 80%
[7]
  pest or weed control at 100 ppm: < 25%
[8]
  pest or weed control at 100 ppm: < 25%
[9]
  pest or weed control at 100 ppm: 25 to 74%
[10]
  pest or weed control at 100 ppm: < 25%
[11]
  pest or weed control at 100 ppm: < 25%
other
  melting point: 96 to 97 °C

## COc1cccc(CNC(=O)c2ncccc2O)c1OC [Compound 227]
[1]
  inhibition at 25 ppm: < 80%
[2]
  inhibition at 25 ppm: < 80%
[3]
  inhibition at 25 ppm: < 80%
[4]
  inhibition at 25 ppm: < 80%
[5]
  inhibition at 25 ppm: < 80%
[6]
  inhibition at 25 ppm: > 80%
[7]
  pest or weed control at 100 ppm: < 25%
[8]
  pest or weed control at 100 ppm: < 25%
[9]
  pest or weed control at 100 ppm: < 25%
[10]
  pest or weed control at 100 ppm: < 25%
[11]
  pest or weed control at 100 ppm: < 25%
other
  melting point: 78 to 79 °C
